Laboratory results published in ChEMBL document CHEMBL1255518, “Novel pyrrole- and 1,2,3-triazole-based 2,3-oxidosqualene cyclase inhibitors” (Bioorg Med Chem Lett, 2010).

Tests used:
[1] = molecular target: T1, Lanosterol synthase (Homo sapiens) (UniProt P48449); assay: Inhibition of OSC at 20 uM
T1 sequence (whole entry): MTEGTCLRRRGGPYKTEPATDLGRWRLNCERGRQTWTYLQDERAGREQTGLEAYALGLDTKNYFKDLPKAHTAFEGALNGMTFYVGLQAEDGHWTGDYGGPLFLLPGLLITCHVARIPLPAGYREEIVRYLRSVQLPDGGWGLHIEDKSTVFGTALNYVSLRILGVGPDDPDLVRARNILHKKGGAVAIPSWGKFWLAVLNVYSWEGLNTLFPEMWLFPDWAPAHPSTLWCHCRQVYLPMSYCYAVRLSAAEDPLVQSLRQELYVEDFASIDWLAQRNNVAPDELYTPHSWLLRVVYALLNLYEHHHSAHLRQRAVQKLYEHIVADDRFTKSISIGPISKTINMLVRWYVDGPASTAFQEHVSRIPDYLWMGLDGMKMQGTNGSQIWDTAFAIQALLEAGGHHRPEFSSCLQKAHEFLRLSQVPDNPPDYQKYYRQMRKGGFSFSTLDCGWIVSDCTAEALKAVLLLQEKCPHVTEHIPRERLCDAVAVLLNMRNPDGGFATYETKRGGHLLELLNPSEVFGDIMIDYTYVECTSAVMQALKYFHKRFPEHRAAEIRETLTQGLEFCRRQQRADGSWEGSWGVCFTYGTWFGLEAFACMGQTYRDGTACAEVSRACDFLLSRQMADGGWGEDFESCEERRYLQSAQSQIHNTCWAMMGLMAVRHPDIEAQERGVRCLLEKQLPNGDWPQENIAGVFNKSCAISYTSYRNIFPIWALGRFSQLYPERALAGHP

Lanosterol synthase = molecular target: T2, Lanosterol synthase (Homo sapiens, UniProt P48449); assay: Inhibition of OSC
T2 sequence (P48449 whole entry): T1 sequence (whole entry)

inhibition [1] [%]	IC50 (Lanosterol synthase) [µM]	Compound
84	2.15	CCCCCCCCCCCC[N+](C)(C)[O-]
	35.4	COc1ccc(-n2c(C)cc(C(=O)NCc3ccc(CN(C)C)cc3)c2C)cc1
86	12.7	COc1ccc(-n2c(C)cc(CNCc3ccc(CN(C)C)cc3)c2C)cc1
128	1.41	CN(C)Cc1ccc(CNCc2cnn(-c3ccccc3)n2)cc1
	58.8	COc1ccc(-n2c(C)cc(CNC(=O)c3ccc(CN(C)C)cc3)c2C)cc1
